≈ marks a conversion by molar mass, not a printed value.
The molecules below were run on L1210 (assay: Cytotoxicity against mouse L1210 cells). Conditions: read-out: ED50 (the source's name).
Format: functional

Row | SMILES | EC50 [µg/mL]
1 | O=C1N/C=C/c2ccc(c(Br)c2)Oc2cc(cc(Br)c2O)CCNC(=O)/C(=N/O)Cc2cc(Br)c(c(Br)c2)Oc2cc(cc(Br)c2O)C/C1=N\O [BASTADIN 4] | 5 (≈ 4.92 µM)
2 | O=C1NCCc2cc(Br)c(O)c(c2)Oc2ccc(cc2Br)[C@H](O)CNC(=O)/C(=N/O)Cc2cc(Br)c(O)c(c2)Oc2c(Br)cc(cc2Br)C/C1=N\O [BASTADIN 8] | 5 (≈ 4.83 µM)
3 | O=C1NCCc2cc(Br)c(O)c(c2)Oc2c(Br)cc(cc2Br)C(O)CNC(=O)/C(=N/O)Cc2cc(Br)c(O)c(c2)Oc2ccc(cc2Br)C/C1=N\O (stereo unspecified) [BASTADIN 9] | 5 (≈ 4.83 µM)
4 | CO/N=C1\Cc2cc(Br)c(OC)c(c2)Oc2c(Br)cc(cc2Br)C/C(=N\OC)C(=O)NCCc2cc(Br)c(OC)c(c2)Oc2ccc(cc2Br)/C=C/NC1=O [TETRAMETHYLBASTADIN 4] | 5 (≈ 4.66 µM)
5 | CO/N=C1/Cc2cc(Br)c(c(Br)c2)Oc2cc(cc(Br)c2OC)C/C(=N\OC)C(=O)NCC(O)c2ccc(c(Br)c2)Oc2cc(cc(Br)c2OC)CCNC1=O (stereo unspecified) [TETRAMETHYLBASTADIN 8] | 5 (≈ 4.58 µM)
6 | CO/N=C1\Cc2ccc(c(Br)c2)Oc2cc(cc(Br)c2OC)C/C(=N\OC)C(=O)NCC(O)c2cc(Br)c(c(Br)c2)Oc2cc(cc(Br)c2OC)CCNC1=O (stereo unspecified) [TETRAMETHYLBASTADIN 9] | 5 (≈ 4.58 µM)

From ChEMBL document CHEMBL1158923, “Cytotoxic metabolites from the sponge Ianthella basta collected in Papua New Guinea” (1990)
